Measurements as given in patent US20260207513A1, “PHARMACEUTICAL COMPOSITION OF SIPONIMOD” (Synthon B.V., priority 2022, published 2026).
Where two headings read alike, the source gives them in different places.

Legend:
[1] = Water content w(H2O), Karl Fischer method; format: physicochemical
From the text: […] The water content can be determined according to the Karl Fischer method as described in Ph. Eur. section 2.5.32. The determination is done by coulometry, preferably Mettler Toledo DL39 Karl Fisher Coulometer, or an equivalent apparatus, including a titration cell without diaphragm. Alternatively, the volumetric Karl Fisher method can be used to determine the water content. […] The water content can be achieved by choosing appropriate ingredients, drying, wetting or combination thereof.

[2] = Compatibility study, closed container: sum of impurities by HPLC
Description: Afterwards, the two components were blended in Turbula® at 72 rpm for 10 minutes. The resulting blend was compacted in the EKO eccentric compression machine in order to obtain a slug. The slug was milled manually, resulting into a milled blend. The milled blend (440 mg) was accurately weighed and placed in glass, opaque vial. […] The milled blend was then analyzed for a sum of area percent levels of impurities (A^imp) by HPLC. The HPLC was performed on Acquity UPLC BEH C8, 150×2.1 mm, dp=1.7 μm column. The detection with UV light at wavelength of 259 nm was used. The column was eluted, using a gradient method, with aqueous ammonium acetate (10 mM, pH 5.5) and acetonitrile at column temperature of 50° C. for 30 min.

[3] = Excipients - dry 0.5% ≤ w(H2O) < 5%
[4] = Excipients - substantially dry w(H2O) < 0.5%
[5] = siponimod adipic acid co-crystal:excipient 1:10 (w/w), excipients substantially dry w(H2O) < 0.5%, closed container, 1 month, 40° C., RH 75%
[6] = Excipients - hydrated w(H2O) ≥ 5%

Row | Molecule | w (H2O) [1, 4] [%] | A^imp (1 m), sum of area percent levels of impurities [2, 5] [%] | also measured
1 | OC[C@@H](O)[C@@H](O)[C@H](O)[C@H](O)CO [Mannitol] | – | – | w (H2O) [1, 3]: 0.6%
2 | CCCCCCCCCCCCCCCCCCCCCC(=O)OCC(CO)OC(=O)CCCCCCCCCCCCCCCCCCCCC (stereo not shown) [Glycerol dibehenate] | 0.1 | 0.08 | –
3 | Isomalt | – | – | w (H2O) [1, 3]: 2.9%; w (H2O) [1, 6]: 5.0%
4 | OC[C@H]1O[C@@H](O[C@H]2[C@H](O)[C@@H](O)C(O)O[C@@H]2CO)[C@H](O)[C@@H](O)[C@H]1O (stereo partly shown) [Lactose] | – | – | w (H2O) [1, 6]: 5.0%
5 | Magnesium stearate | 0.2 | – | A^imp (1 m), sum of area percent levels of impurities [2]: 0.16%
6 | CCc1cc(/C(C)=N/OCc2ccc(C3CCCCC3)c(C(F)(F)F)c2)ccc1CN1CC(C(=O)O)C1 [Siponimod adipic acid co-crystal] | – | – | w (H2O) ([1]; Active ingredients): 0.2%; A^imp (1 m), sum of area percent levels of impurities ([2]; Active ingredients, closed container, t = 1 month, 40° C., RH 75%): 0.09%
7 | CCCCCCCCCCCCCCCCCC(=O)OCC(O)CO (stereo not shown) [Glycerol monostearate] | 0.2 | 0.12 | –

The next lines start with results.

Row | w (H2O) [1, 4] [%] | A^imp (1 m), sum of area percent levels of impurities [2, 5] [%] | Molecule | also measured
8 | 0.4 | 0.08 | CCCCCCCCCCCCCCCCCCOC(=O)/C=C/C(=O)[O-].[Na+] [Sodium stearyl fumarate] | –
9 | 0.3 | 0.05 | CCCCCCCCCCCCCCCCCCO [Stearyl alcohol] | –
